Source: patent US12357623B2, “Method for treating a disease or condition using a pyrazole compound or formulation thereof” (Rigel Pharmaceuticals, Inc., priority 2021, dated 2025)

Tests used:
[1] = DVS isotherm of spray-dried formulation and crystalline compound I-1; format: physicochemical; settings: 25° C.; compared with the dispersion
Method: (§1) FIG. 1 is a dynamic vapor sorption (DVS) plot of percent change in mass versus target relative humidity (RH), illustrating the change in mass of one embodiment of the disclosed spray-dried formulation at 25° C. under various relative humidity conditions. The plot provides two isotherms: 1 is the sorption plot, illustrating the change in mass with increasing relative humidity steps; and 2 is the desorption plot, illustrating the change in mass with decreasing relative humidity steps.
as §1, with “FIG. 6” for “FIG. 1”, “a DVS” for “a dynamic vapor sorption (DVS)”, “relative humidity,” for “relative humidity (RH),”, “of a crystalline sample of compound I-1” for “of the disclosed spray-dried formulation”
FIGS. 1-10 provide structural and stability data concerning the spray-dried formulation (FIGS. 1-5) and a crystalline sample of compound I-1 (FIGS. 6-10). FIGS. 1 and 6 provide DVS isotherm plots for the spray-dried formulation and crystalline compound, respectively.

[2] = Rat AUC and percent bioavailability of compound I-1 after administration of potential prodrugs; parameters: species or system Rats; settings: in vivo, parent, iv 1 mg/kg, read-out: Rat AUClast of compound I-1

## CCO[C@H]1CC[C@H](n2cc(NC(=O)c3csc(-c4cn[nH]c4)n3)c(-c3nc(F)ccc3F)n2)CC1 [Compound I-1, N-(3-(3,6-difluoropyridin-2-yl)-1-((1r, 4r)-4-ethoxycyclohexyl)-1H-pyrazol-4-yl)-2-(1H-pyrazol-4-yl)thiazole-4-carboxamide]
[1]
  change in mass when exposed to higher relative humidity (DVS): substantially smaller change in mass
[2]
  AUC(0-t): 1050 ng·h/mL
